Several values for one entry are separate records, joined by “and”; a condition that tells them apart may be missing. Identical values can stand only once.
Key:
Format in all cases: cell-based
Ole1 = molecular target: T1, Ole1 (Saccharomyces cerevisiae, UniProt P21147); assay: Growth inhibition of yeast expressing Ole1 as sole desaturase; details: for OLE1 % Max Inhibition: yeast expressing Ole1 as sole desaturase
T1 construct: expressed in transfected cells; host or cells: S. cerevisiae ole1Δ strain (W303 pdr1Δ pdr3Δ background), plasmid pRS316 with TDH3 promoter and CYC1 terminator
T1 sequence (P21147 1-510): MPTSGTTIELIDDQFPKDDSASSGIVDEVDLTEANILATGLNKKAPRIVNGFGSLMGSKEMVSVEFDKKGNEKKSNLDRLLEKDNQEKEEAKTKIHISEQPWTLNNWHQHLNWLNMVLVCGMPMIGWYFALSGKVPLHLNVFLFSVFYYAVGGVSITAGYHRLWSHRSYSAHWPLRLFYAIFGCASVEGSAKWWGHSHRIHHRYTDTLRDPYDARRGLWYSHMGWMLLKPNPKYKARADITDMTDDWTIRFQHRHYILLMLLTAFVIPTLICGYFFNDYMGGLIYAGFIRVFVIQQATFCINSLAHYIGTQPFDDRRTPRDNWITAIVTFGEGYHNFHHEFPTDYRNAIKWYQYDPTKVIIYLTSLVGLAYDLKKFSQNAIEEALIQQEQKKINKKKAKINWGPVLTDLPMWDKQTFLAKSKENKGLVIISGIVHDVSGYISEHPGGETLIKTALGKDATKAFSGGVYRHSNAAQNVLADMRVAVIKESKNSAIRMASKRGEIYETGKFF
Protocol: (§1) Strain ole1Δ (yeast ole1 deletion mutant) was constructed by deleting OLE1 with NAT-MX6 in BY4741, amplifying the deletion cassette from the genomic DNA of the resulting strain with primers flanking the ORF by 1000 bp upstream and downstream, transforming the resulting deletion cassette into W303 pdr1Δ pdr3Δ, and plating transformants on YPD media containing G418 (200 μg/mL) and nourseothricin (100 μg/mL) with 0.01% TWEEN®-20 and 0.5 mM oleic and palmitoleic acids.
(§2) The coding sequence of yeast OLE1 was also cloned into this plasmid). These clones were then transformed into the ole1Δ strain and plated on CSM-Ura media (CSM lacking uracil) with 2% glucose (w/v) and independent colonies were isolated and amplified.
(§3) All compound profiling experiments were performed using the same basic protocol. Different genetic backgrounds (e.g., gene deletions) or conditions (e.g., addition of oleic and palmitoleic acid) were replaced as indicated below.
(§4) Yeast were cultured using standard techniques in complete synthetic media (CSM) and yeast nitrogen base supplemented with 2% (w/v) carbon source (glucose, raffinose, or galactose) to regulate the expression of the toxic disease protein. An initial starter culture was inoculated in 3 mL CSM-Glucose media and incubated overnight in a 30° C. shaker incubator (225 rpm). Saturated morning cultures were then diluted 1:20 in fresh CSM-Raffinose media and grown for 6 h to an OD600 (optical density) of ˜0.4-0.8 at 30° C. with shaking.
(§5) Compound administration was performed in two separate steps. First, 15 μL of CSM-Galactose (induces expression of toxic protein) was dispensed into clear 384 well assay plates using a MULTIDROP™ Combi reagent dispenser. […] The cultures described above were then diluted to a 2× concentration (0.03 and 0.08 for alpha-synuclein and ApoE, final OD600 of 0.015 and 0.04) in CSM-Galactose. For wild-type and Ole1/SCD1/SCD5 plasmid-containing strains, the 2× cell density was 0.02. […] For 96-well assays (FIGS. 1A and 1B), compound dilutions in DMSO were generated in 96 well plates and 1 μL was manually pipetted into 96 well clear bottom assay plates.
(§6) For experiments using a plasmid-borne copy of Ole1, SCD1, or SCD5 (FIGS. 3B, 6, and 7), media lacking uracil (SX-Ura, where X is glucose, raffinose, or galactose), was used for all steps of the compound profiling protocol to ensure its maintenance throughout the assay.
(§7) After yeast delivery, assay plates were incubated under humidified conditions at 30° C. for 24 to 40 h. ApoE4 rescue experiments were stopped at 24 h, aSyn experiments at 40 h, Ole1 at 24 h, and SCD1/SCD5 at 40 h. The growth of yeast was monitored by reading the OD600 of each well using a microplate reader (Perkin Elmer EnVision™).

SCD5 = molecular target: T2, SCD5 (Homo sapiens, UniProt Q86SK9); assay: Growth inhibition of humanized yeast expressing SCD5 as sole desaturase
T2 construct: host or cells: S. cerevisiae ole1Δ strain, plasmid pRS316 with TDH3 promoter and CYC1 terminator
T2 sequence (Q86SK9 1-330): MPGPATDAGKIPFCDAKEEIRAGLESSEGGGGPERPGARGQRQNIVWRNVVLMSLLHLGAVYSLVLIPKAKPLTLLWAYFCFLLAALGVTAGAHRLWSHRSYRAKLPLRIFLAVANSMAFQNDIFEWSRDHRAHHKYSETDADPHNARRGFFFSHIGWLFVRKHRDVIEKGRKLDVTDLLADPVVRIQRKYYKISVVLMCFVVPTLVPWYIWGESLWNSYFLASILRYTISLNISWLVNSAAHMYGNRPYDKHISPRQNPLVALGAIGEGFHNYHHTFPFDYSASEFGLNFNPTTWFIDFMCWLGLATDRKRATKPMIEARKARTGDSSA
Protocol: as §1, §2, §3, §4, §5, §6, §7

SCD1 = molecular target: T3, SCD1 (Homo sapiens, UniProt O00767); assay: Growth inhibition of humanized yeast expressing SCD1 as sole desaturase
T3 construct: host or cells: S. cerevisiae ole1Δ strain, plasmid pRS316 with TDH3 promoter and CYC1 terminator
T3 sequence (O00767 1-359): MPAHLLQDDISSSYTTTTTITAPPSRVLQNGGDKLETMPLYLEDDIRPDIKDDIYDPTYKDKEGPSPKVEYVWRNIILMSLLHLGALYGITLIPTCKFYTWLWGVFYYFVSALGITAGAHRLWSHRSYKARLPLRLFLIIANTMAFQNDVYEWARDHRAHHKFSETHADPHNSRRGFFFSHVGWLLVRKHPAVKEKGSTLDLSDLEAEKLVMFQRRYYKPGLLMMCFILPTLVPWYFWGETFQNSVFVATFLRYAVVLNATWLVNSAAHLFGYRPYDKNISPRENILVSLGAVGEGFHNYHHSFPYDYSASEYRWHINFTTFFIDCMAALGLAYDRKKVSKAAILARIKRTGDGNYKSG
Procedure, shortened: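 ole1Δ yeast (W303 pdr1Δ pdr3Δ background) carried plasmid-borne human SCD1, human SCD5 or yeast Ole1 as the sole desaturase and were grown in uracil-lacking galactose medium in 384-well plates. Starting 2× density was OD600 0.02, with incubation at 30 °C. Growth was read as OD600 at 24 h for Ole1 and at 40 h for SCD1 and SCD5.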

[1] = humanized yeast expressing SCD5
[2] = humanized yeast expressing SCD1
[3] = humanized yeast expressing human SCD5
[4] = humanized yeast expressing human SCD1

| Structure (SMILES) | OLE1 % Max Inhibition (Ole1) | SCD5 % Max Inhibition (SCD5; [1]) | SCD1 % Max Inhibition (SCD1; [2]) | IC50 (SCD5; [3]) | also measured |
| --- | --- | --- | --- | --- | --- |
| COc1ccc(-c2noc(C3CCN(C(=O)[C@H]4CC(=O)N(c5ccc(C)c(C)c5)C4)CC3)n2)cc1OC (single isomer, unassigned) [Compound 67] | 85.79% | 4.32% | 54.45% |  |  |
| COc1cccc(-c2noc(C3CCN(C(=O)[C@@H]4CC(=O)N(c5ccc(C)c(C)c5)C4)CC3)n2)c1 (single isomer, unassigned) [Compound 69] | 105.31% | 8.06% | 60.59% |  |  |
| Cc1nnc(-c2ccc(N3CCC(Oc4cc(F)ccc4Cl)CC3)nn2)o1 [CAY10566, reference compound] |  |  |  |  | Sensitivity of yeast expressing OLE1 to known SCD1/SCD5 inhibitors (Ole1; FIG. 6): resistant; half-maximal inhibitory concentration (IC50), SCD5 humanized strain (SCD5; FIG. 6): low nanomolar; half-maximal inhibitory concentration (IC50), SCD1 humanized strain (SCD1; FIG. 6): low nanomolar |
| COc1ccc(-c2noc(C3CCN(C(=O)[C@H]4CC(=O)N(c5ccccc5)C4)CC3)n2)cc1OC [Compound 65] | 4.02% | 73.43% | 83.43% |  | IC50 (SCD5; [1]): > 45 µM; IC50 (SCD1; [2]): > 45 µM |
| COc1ccc(-c2noc(C3CCN(C(=O)[C@@H]4CC(=O)N(c5ccccc5)C4)CC3)n2)cc1OC [Compound 66] | 99.71% | 19.53% | 94.04% |  | IC50 (SCD5; [1]): > 45 µM; IC50 (SCD1; [2]): > 45 µM |
| COc1ccc(-c2noc(C3CCN(C(=O)[C@@H]4CC(=O)N(c5ccc(C)c(C)c5)C4)CC3)n2)cc1OC [Compound 68] | 9.74% | 3.75% | 22.28% |  | IC50 (SCD5; [1]): > 45 µM; IC50 (SCD1; [2]): > 45 µM |
| CCN1C(=O)CN(C)c2ccc(-c3noc(C4CCN(C(=O)CNC(=O)c5ccccc5)CC4)n3)cc21 [Compound 298] | 6.6% |  |  | > 45 µM | SCD5 % Max Inhibition (SCD5; [3]): 21.3%; IC50 (SCD1; [4]): > 45 µM; SCD1 % Max Inhibition (SCD1; [4]): 92.3% |
| Cc1nn(C)c2cc(-c3noc(C4CCN(C(=O)OC(C)(C)C)CC4)n3)ccc12 [Compound 300] | 79.7% |  |  | > 45 µM | SCD5 % Max Inhibition (SCD5; [3]): 36.0%; IC50 (SCD1; [4]): > 45 µM; SCD1 % Max Inhibition (SCD1; [4]): 78.1% |
| O=C([C@H]1CC(=O)N(c2ccccc2)C1)N1CCC(c2nc(N3CC4(COC4)C3)no2)CC1 [Compound 316] |  |  |  | ≥ 45 µM |  |
| Cc1nn(C)c2cc(-c3nc(C4CCN(C(=O)OC(C)(C)C)CC4)no3)ccc12 [Compound 319] |  | 4.96% and 10.94% |  |  |  |
| Cc1nn(C)c2cc(-c3nsc(C4CCN(C(=O)CNC(=O)c5cccc(C#N)c5)CC4)n3)ccc12 [Compound 322] | 9.0% |  |  | > 45 µM | SCD5 % Max Inhibition (SCD5; [3]): 29.8%; IC50 (SCD1; [4]): > 45 µM; SCD1 % Max Inhibition (SCD1; [4]): 73.6% |
| O=C(C1CC(=O)N(c2cccc(Cl)c2)C1)N1CCC(c2nc(Cl)no2)CC1 (stereo not drawn) [Compound 348] |  |  |  | ≥ 45 µM |  |
| N#Cc1cccc(N2CC(C(=O)N3CCC(c4nc(Cl)no4)CC3)CC2=O)c1 (stereo not drawn) [Compound 350] |  |  |  | ≥ 45 µM |  |
| O=C(c1ccccc1)N1CCC(c2nc(Cl)no2)CC1 [Compound 351] |  |  |  | ≥ 45 µM |  |
| CC(C)n1ncc2ccc(-c3noc(N4CCN(C(=O)OC5CC5)CC4)n3)cc21 [Compound 496] |  |  |  | 0.445 µM |  |

Source: patent publication US20240400546A1, “COMPOUNDS AND USES THEREOF” (JANSSEN PHARMACEUTICA NV, priority 2016, published 2024)
